Like-named read-outs stand apart in the source and are kept apart here.
Key:
β-receptors of the heart = target: T1, β-receptors of the heart (Felis catus, UniProt Q9TST6); experiment: Intrinsic activity and β-blockade of heart rate response to isoprenaline in the reserpinized cat; type: in vivo; conditions: for ED50: read-out: β-blockade Heart rate ED50; for Emax: read-out: Intrinsic activity % of isoprenaline heart rate response
T1 construct: Intravenously injected isoprenaline increased the heart rate and reduced the perfusion pressure; from tissue; host or cells: heart of the anaesthetized, reserpinized, vagotomized cat (in vivo)
T1 sequence (Q9TST6 whole entry, the tested form may be a part): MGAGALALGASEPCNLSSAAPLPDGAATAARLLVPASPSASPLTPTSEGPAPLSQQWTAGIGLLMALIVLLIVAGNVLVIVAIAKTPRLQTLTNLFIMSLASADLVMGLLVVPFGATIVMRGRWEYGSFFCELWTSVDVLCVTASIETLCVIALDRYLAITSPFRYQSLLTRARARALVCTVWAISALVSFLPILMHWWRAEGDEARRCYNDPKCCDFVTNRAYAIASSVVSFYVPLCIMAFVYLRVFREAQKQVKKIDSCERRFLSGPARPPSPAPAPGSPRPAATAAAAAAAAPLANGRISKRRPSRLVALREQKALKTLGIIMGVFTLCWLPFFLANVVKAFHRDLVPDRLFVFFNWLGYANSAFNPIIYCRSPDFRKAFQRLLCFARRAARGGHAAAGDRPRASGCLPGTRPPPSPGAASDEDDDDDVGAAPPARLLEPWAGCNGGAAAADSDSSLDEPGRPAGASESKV
Protocol: Alprenolol was used as a reference substance.
(§1) Cats weighing between […] were anaesthetized with 30 mg/kg pentobarbital sodium i.p. The cats had been pretreated with reserpine, 5 mg/kg i.m. about 18 hours before the experiment. Bilateral vagotomy was performed before the start of the experiment.
The heart rate was recorded on an Offner cardiotachometer triggered by the EKG-complex. Mean intraarterial blood pressure was recorded from a carotid artery. The peripheral resistance was measured in one of the legs of the cat in the following way: The femoral artery was opened in the inguinal region and the leg was perfused by blood delivered through a sigma motor pump at constant rate. The flow resistance (the pressure) as recorded via a strain gauge transducer connected to the catheter distally to the pump. The paw was excluded from the circulation by a tight ligature around the ankle. […] An isoprenaline dose giving 70-80% of the maximal chronotropic response was determined. […] Ten minutes before each isoprenaline injection, the tested substances were administered intravenously for two minutes, starting with a dose of 0.01 mg/kg and increasing each subsequent dose fourfold. The intrinsic effects of the test substances were determined. The dose producing 50% blockade of the isoprenaline responses were evaluated from the plotted log dose-per cent blockade diagrams.

[1] = target: T2, peripheral vascular β-receptors (Felis catus, UniProt Q9TST5); experiment: Peripheral vascular β-blockade (peripheral vascular resistance, vasodilator response to isoprenaline) in the reserpinized cat; type: in vivo; conditions: read-out: β-blockade Peripheral vascular resistance ED50
T2 construct: from tissue; host or cells: vascular bed of the blood-perfused leg (paw excluded) of the anaesthetized, reserpinized cat (in vivo)
T2 sequence (Q9TST5 whole entry, the tested form may be a part): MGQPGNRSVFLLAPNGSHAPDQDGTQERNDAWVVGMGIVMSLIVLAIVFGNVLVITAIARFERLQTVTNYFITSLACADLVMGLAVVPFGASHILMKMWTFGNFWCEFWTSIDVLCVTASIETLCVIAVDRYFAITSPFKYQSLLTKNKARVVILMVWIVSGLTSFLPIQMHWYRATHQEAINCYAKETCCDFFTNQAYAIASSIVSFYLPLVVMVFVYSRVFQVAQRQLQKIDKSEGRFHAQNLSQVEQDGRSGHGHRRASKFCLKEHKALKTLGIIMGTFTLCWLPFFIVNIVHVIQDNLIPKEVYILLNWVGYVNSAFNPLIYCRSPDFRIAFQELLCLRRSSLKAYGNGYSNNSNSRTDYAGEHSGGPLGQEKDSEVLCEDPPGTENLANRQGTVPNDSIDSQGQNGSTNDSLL
Protocol: The compounds prepared according to examples 1-18 were evaluated for intrinsic activity and blocking effect on heart rate and for peripheral vasodilator response to isoprenaline in the cat. Alprenolol was used as a reference substance.
as §1
The heart rate was recorded on an Offner cardiotachometer triggered by the EKG-complex. Mean intraarterial blood pressure was recorded from a carotid artery. The peripheral resistance was measured in one of the legs of the cat in the following way: The femoral artery was opened in the inguinal region and the leg was perfused by blood delivered through a sigma motor pump at constant rate. The flow resistance (the pressure) as recorded via a strain gauge transducer connected to the catheter distally to the pump. The paw was excluded from the circulation by a tight ligature around the ankle. Intravenously injected isoprenaline increased the heart rate and reduced the perfusion pressure. An isoprenaline dose giving 70-80% of the maximal chronotropic response was determined. This dose (usually 0.1 μg/kg) was then repeated with 20 minute intervals. Ten minutes before each isoprenaline injection, the tested substances were administered intravenously for two minutes, starting with a dose of 0.01 mg/kg and increasing each subsequent dose fourfold. The intrinsic effects of the test substances were determined. The dose producing 50% blockade of the isoprenaline responses were evaluated from the plotted log dose-per cent blockade diagrams.

[2] = reserpinized cat, intravenous, 50% blockade of isoprenaline response (usually 0.1 μg/kg)

Row | Structure (SMILES) | ED50 (β-receptors of the heart; [2]) [mg/kg] | Emax (β-receptors of the heart; reserpinized cat, intravenous) [%] | ED50 [1, 2] [mg/kg] | ED50 (β-receptors of the heart; cat, iv) [mg/kg] | Emax (β-receptors of the heart; iv) [%] | ED50 ([1]; cat, iv) [mg/kg]
1 | CC(C)NCC(O)COc1ccc(OCCOC(=O)N(C)C)cc1Cl (stereo not shown) [(CH3)2 NCOOC2 H4 O, Cl, 1-Isopropylamino-3-[2-chloro-4-(2-dimethylcarbamoyloxyethoxy)-phenoxy]-propanol-2] | 0.1 | 5 | 1.7 | – | – | –
2 | CNC(=O)OCCOc1ccc(OCC(O)CNC(C)C)cc1 (stereo not shown) [CH3 NHCOOC2 H4 O, H, 1-isopropylamino-3-[4-(2-methylcarbamoyloxyethoxy)-phenoxy]-propanol-2] | 0.5 | 25 | > 8.5 | – | – | –
3 | CNC(=O)OCCc1ccc(OCC(O)CNC(C)C)c(Cl)c1 (stereo not shown) [CH3 NHCOOC2 H4, Cl, 1-Isopropylamino-3-[2-chloro-4-(2-methylcarbamoyloxyethyl)-phenoxy]-propanol-2] | 0.3 | 0 | 1.8 | – | – | –
4 | CNC(=O)OCCc1ccc(OCC(O)CNC(C)C)cc1 (stereo not shown) [CH3 NHCOOC2 H4, H, 1-Isopropylamino-3-[4-(2-methylcarbamoyloxyethyl)-phenoxy]-propanol-2] | 0.4 | 0 | 2.4 | – | – | –
5 | CC(C)NCC(O)COc1ccc(CCNC(N)=O)cc1Cl (stereo not shown) [H2 NCONHC2 H4, Cl, 1-Isopropylamino-3-[2-chloro-4-(2-carbamoylaminoethyl)phenoxy]-propanol-2] | 0.4 | 0 | 2.6 | – | – | –
6 | CC(C)NCC(O)COc1ccc(CCNC(N)=O)cc1 (stereo not shown) [H2 NCONHC2 H4, H] | 0.4 | 0 | 14 | – | – | –
7 | CC(C)NCC(O)COc1ccc(OCCOC(N)=O)cc1 (stereo not shown) [H2 NCOOC2 H5 O, H, 1-Isopropylamino-3-[4-(2-carbamoyloxyethoxy)-phenoxy]-propanol-2] | – | – | – | 0.4 | 40 | 8
8 | C=CCc1ccccc1OCC(O)CNC(C)C (stereo not shown) [alprenolol, Alprenolol, reference compound] | – | 20 | – | – | – | –

From patent publication US4078146A, “Phenoxy propanolamines” (priority 1972, dated 1978)
